From patent publication US12391664B2, “GluN2C/D subunit selective antagonists of the N-methyl-D-aspartate receptor” (Emory University, priority 2018, dated 2025)
Read-outs that look alike come from different tables or passages of the source. Blank lines part the entries; values can stand above or below the compound they belong to.

Legend:
Format in all cases: cell-based
[1] = target: T1, recombinant rat GluN1/GluN2C (Rattus norvegicus, UniProt Q00961); experiment: Two-electrode voltage-clamp recordings in Xenopus laevis oocytes, GluN2C; conditions: for I3 μM/Icontrol (mean ± SEM, %) GluN2C: 3 μM compound with 100 μM glutamate and 30 μM glycine, control set as 1; for GluN2C IC50: oocytes, 100 μM glutamate and 30 μM glycine
T1 construct: expressed in transfected cells; host or cells: Xenopus laevis oocytes injected with cRNA (GluN1:GluN2 ratio 1:2)
Description: (§1) All target compounds were evaluated for activity by the Traynelis laboratory at Emory University using two-electrode voltage-clamp recordings performed in Xenopus laevis oocytes expressing recombinant GluN2A-D subunits (Table 1). […] Two ester compounds 997-65 and 997-66 also performed no inhibition at GluN2A to GluN2D receptors. […] Consequently, for the compounds that Acker et al. already published, it was necessary to increase the concentration to 100 μM when collecting data for a concentration effect curve. […] Therefore, under this condition, we can only conclude that compound 997-67 remained potent at GluN2C/D-containing receptors, but its selectivity over GluN2A- and GluN2B-containing receptors could not be compared to 997-57. […] Finally, replacing the carboxylic acid to the bio-isostere amide yielded compounds 997-96 and 997-115, which dropped the potency 2- to 4-fold in comparison to their corresponding acids 997-74 and 997-114.
(§2) Two-electrode voltage-clamp recordings were performed in Xenopus laevis oocytes that were injected with mRNA to express recombinant rat GluN1/GluN2A, GluN1/GluN2B, GluN1/GluN2C, and GluN1/GluN2D. The recordings using unfertilized oocytes from Xenopus laevis were permitted by Emory University Institutional Animal Care and Use Committee (IACUC). An automatic injector (Nanoject II, Drummond Scientific) was used for cRNA injection using the pipettes filled with mineral oil. The cRNA that transcribed in vitro via the mMessage Machine kit (Ambion) was diluted with nuclease-free water, and then injected at GluN1/GluN2 with a ratio of 1:2. The oocytes were stored in Barth's solution that contained 88 mM NaCl, 5.0 mM Tris-HCl, 2.4 mM NaHCO3, 1.0 mM KCl, 0.84 mM MgSO4, 0.41 mM CaCl2, 0.33 mM Ca(NO3)2, 0.1 mg/ml gentamycin sulfate, 1.0 U/ml penicillin, and 1 μg/ml streptomycin at a pH of 7.4 and temperatures of 15-17° C. for two to five days before the two-electrode voltage-clamp recordings. When recording, the oocytes were placed in a perfusion chamber and continually washed with the recording solution comprised of 90 mM NaCl, 1.0 mM KCl, 0.50 mM BaCl2, 0.005 mM EDTA, and 10 mM HEPES at a pH of 7.4 and a temperature of 23° C. Glass electrodes with a tip resistance of 0.5 to 2.5 MΩ were obtained from thin-walled glass capillary tubes. Voltage electrodes and current electrodes were filled with 0.3 M and 3.0 M KCl, respectively. The recordings were executed with the oocytes membrane potential holding at −40 m V by an OC-725 amplifier (Warner Instrument Co). All compounds were dissolved in dimethyl sulfoxide (DMSO) as 20 mM stock solutions and future diluted to reach the desired concentration (0.05-0.5% (vol/vol) DMSO) in recording solution comprised of 30 μM glycine and 100 μM glutamate. Each compound was recorded 3-7 times in the least 4 oocytes from at least 2 different Xenopus laevis.
(§3) To evaluate the inhibition of compounds, the concentration-response curve was fitted with the average two-electrode voltage-clamp recording results with the equation
(§4) [formula] • where IC50 is the concentration of compounds that inhibit half maximal of the current response and N is the Hill slope.

[2] = target: T2, recombinant rat GluN1/GluN2C (Rattus norvegicus, UniProt P35439+Q00961); experiment: as above
T2 construct: expressed in transfected cells; host or cells: Xenopus laevis oocytes injected with cRNA (GluN1:GluN2 ratio 1:2)
Description: as §1, §2, §3, §4

[3] = target: T3, recombinant rat GluN1/GluN2D (Rattus norvegicus, UniProt Q62645); experiment: Two-electrode voltage-clamp recordings in Xenopus laevis oocytes, GluN2D; conditions: for I3 μM/Icontrol (mean ± SEM, %) GluN2D: 3 μM compound with 100 μM glutamate and 30 μM glycine, control set as 1; for 2A IC50 / 2D IC50 / 2B IC50 / 2D IC50: ratio of IC50 values; for GluN2D IC50: oocytes, 100 μM glutamate and 30 μM glycine
T3 construct: expressed in transfected cells; host or cells: Xenopus laevis oocytes injected with cRNA (GluN1:GluN2 ratio 1:2)
T3 sequence (Q62645 28-1323, other chains not shown): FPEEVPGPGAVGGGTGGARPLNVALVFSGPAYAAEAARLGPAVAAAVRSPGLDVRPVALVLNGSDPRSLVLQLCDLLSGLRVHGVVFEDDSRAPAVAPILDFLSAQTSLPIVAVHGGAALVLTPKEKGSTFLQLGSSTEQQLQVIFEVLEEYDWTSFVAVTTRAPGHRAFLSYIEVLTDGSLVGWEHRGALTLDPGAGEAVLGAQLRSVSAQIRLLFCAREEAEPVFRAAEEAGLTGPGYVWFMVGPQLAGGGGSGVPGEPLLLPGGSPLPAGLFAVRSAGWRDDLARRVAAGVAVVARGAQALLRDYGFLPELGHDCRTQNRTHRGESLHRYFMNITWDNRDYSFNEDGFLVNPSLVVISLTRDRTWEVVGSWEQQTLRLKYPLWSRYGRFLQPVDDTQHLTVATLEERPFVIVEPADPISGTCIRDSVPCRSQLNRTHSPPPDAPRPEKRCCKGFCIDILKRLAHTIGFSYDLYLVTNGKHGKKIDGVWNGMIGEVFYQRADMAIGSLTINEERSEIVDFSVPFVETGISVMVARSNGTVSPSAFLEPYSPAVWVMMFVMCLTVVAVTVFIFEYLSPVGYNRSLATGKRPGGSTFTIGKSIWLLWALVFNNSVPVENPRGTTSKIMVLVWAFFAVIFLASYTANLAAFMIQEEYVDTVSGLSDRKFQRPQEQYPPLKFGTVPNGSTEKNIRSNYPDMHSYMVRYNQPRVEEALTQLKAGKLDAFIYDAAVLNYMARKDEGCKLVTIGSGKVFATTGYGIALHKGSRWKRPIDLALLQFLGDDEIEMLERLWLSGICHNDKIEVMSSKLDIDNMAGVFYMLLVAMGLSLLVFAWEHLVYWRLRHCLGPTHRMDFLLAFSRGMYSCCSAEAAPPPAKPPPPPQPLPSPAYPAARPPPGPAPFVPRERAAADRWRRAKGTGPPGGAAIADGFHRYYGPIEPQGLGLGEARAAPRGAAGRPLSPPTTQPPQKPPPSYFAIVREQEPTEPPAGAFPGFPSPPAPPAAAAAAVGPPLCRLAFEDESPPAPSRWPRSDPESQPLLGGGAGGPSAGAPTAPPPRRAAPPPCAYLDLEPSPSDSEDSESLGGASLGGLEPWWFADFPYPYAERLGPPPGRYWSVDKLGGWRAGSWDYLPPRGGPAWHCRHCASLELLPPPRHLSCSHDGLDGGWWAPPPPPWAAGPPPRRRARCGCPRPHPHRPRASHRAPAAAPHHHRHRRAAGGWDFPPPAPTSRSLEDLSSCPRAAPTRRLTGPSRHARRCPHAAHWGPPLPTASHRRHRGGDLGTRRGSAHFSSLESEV
Description: as §1, §2, §3, §4

[4] = target: T4, recombinant rat GluN1/GluN2D (Rattus norvegicus, UniProt P35439+Q62645); experiment: as above
T4 construct: expressed in transfected cells; host or cells: Xenopus laevis oocytes injected with cRNA (GluN1:GluN2 ratio 1:2)
T4 sequence (Q62645 28-1323, other chains not shown): as above
Description: as §1, §2, §3, §4

[5] = target: T5, recombinant rat GluN1/GluN2A (Rattus norvegicus, UniProt Q00959); experiment: Two-electrode voltage-clamp recordings in Xenopus laevis oocytes, GluN2A; conditions: for I3 μM/Icontrol (mean ± SEM, %) GluN2A: 3 μM compound with 100 μM glutamate and 30 μM glycine, control set as 1; for GluN2A IC50: oocytes, 100 μM glutamate and 30 μM glycine
T5 construct: expressed in transfected cells; host or cells: Xenopus laevis oocytes injected with cRNA (GluN1:GluN2 ratio 1:2)
T5 sequence (Q00959 23-1464, other chains not shown): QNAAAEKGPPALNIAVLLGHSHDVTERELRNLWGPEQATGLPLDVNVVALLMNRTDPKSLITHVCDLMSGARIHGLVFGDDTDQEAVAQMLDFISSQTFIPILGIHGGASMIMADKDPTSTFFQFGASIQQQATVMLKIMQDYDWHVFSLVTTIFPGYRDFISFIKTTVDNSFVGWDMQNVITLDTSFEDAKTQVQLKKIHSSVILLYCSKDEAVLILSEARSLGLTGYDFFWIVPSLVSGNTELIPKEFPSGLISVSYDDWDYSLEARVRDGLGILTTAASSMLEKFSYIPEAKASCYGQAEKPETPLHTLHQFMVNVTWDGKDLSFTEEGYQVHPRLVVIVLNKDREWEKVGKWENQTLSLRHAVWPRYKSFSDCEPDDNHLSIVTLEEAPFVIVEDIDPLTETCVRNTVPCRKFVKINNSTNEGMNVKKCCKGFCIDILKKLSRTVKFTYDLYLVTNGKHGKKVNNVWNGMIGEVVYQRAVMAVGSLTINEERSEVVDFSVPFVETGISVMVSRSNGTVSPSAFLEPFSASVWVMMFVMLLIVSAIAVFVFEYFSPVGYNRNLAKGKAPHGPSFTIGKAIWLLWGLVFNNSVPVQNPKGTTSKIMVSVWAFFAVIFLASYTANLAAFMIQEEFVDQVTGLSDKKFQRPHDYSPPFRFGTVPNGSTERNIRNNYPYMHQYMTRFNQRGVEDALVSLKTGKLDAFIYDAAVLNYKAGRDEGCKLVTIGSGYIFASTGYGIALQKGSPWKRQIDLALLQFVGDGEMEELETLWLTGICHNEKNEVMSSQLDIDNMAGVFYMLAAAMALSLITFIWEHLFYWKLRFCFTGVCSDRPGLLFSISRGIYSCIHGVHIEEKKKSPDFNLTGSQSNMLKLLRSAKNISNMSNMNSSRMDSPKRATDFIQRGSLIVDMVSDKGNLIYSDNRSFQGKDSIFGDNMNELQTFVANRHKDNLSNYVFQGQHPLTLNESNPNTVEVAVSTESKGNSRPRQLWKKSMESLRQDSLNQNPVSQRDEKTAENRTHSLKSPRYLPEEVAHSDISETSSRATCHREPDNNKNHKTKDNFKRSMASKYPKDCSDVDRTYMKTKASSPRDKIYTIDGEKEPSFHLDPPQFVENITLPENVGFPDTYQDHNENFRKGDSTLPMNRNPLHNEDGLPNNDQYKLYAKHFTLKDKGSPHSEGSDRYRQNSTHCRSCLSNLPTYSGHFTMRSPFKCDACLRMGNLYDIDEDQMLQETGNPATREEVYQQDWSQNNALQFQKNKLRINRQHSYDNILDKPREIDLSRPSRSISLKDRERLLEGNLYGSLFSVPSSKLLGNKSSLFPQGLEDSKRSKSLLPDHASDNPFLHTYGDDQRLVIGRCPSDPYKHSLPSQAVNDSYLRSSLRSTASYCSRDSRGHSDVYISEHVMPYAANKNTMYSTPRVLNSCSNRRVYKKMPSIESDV
Description: as §1, §2, §3, §4

[6] = target: T6, recombinant rat GluN1/GluN2B (Rattus norvegicus, UniProt Q00960); experiment: Two-electrode voltage-clamp recordings in Xenopus laevis oocytes, GluN2B; conditions: for I3 μM/Icontrol (mean ± SEM, %) GluN2B: 3 μM compound with 100 μM glutamate and 30 μM glycine, control set as 1; for GluN2B IC50: oocytes, 100 μM glutamate and 30 μM glycine
T6 construct: expressed in transfected cells; host or cells: Xenopus laevis oocytes injected with cRNA (GluN1:GluN2 ratio 1:2)
Description: as §1, §2, §3, §4

[7] = target: T7, recombinant rat GluN1/GluN2A (Rattus norvegicus, UniProt P35439+Q00959); experiment: Two-electrode voltage-clamp recordings in Xenopus laevis oocytes, GluN2A; conditions: oocytes, 100 μM glutamate and 30 μM glycine
T7 construct: expressed in transfected cells; host or cells: Xenopus laevis oocytes injected with cRNA (GluN1:GluN2 ratio 1:2)
T7 sequence (Q00959 23-1464, other chains not shown): as above
Description: as §1, §2, §3, §4

[8] = target: T8, recombinant rat GluN1/GluN2B (Rattus norvegicus, UniProt P35439+Q00960); experiment: Two-electrode voltage-clamp recordings in Xenopus laevis oocytes, GluN2B; conditions: oocytes, 100 μM glutamate and 30 μM glycine
T8 construct: expressed in transfected cells; host or cells: Xenopus laevis oocytes injected with cRNA (GluN1:GluN2 ratio 1:2)
Description: as §1, §2, §3, §4

[9] = oocytes, 100 μM glutamate and 30 μM glycine, read-out: GluN2C IC50
[10] = mean IC50 with bottom and top 95% confidence interval, read-out: Avg. GluN2D IC50 (95% CI)
[11] = oocytes, 100 μM glutamate and 30 μM glycine, read-out: GluN2D IC50

SMILES: O=C(O)CC(F)(F)C(=O)N1N=C(c2c(-c3ccc(Cl)cc3)c3ccccc3[nH]c2=O)CC1c1ccc(Cl)cc1 (centres unmarked) [997-74, 4-(5-(4-chlorophenyl)-3-(4-(4-chlorophenyl)-2-oxo-1,2-dihydroquinolin-3-yl)-4,5-dihydro-1H-pyrazol-1-yl)-3,3-difluoro-4-oxobutanoic acid]
selectivity at GluN2D- over GluN2A-containing receptor [3]: approximately 220 fold | 2A IC50 / 2D IC50 [3]: 220 | 2B IC50 / 2D IC50 [3]: 138 | IC50 [7]: 11 µM | IC50 [8]: 6.9 µM

SMILES: Cc1c(C2=NNC(c3ccc(Cl)cc3)C2)c(=O)[nH]c2ccccc12 (centres unmarked) [997-77, 3-(5-(4-chlorophenyl)-4,5-dihydro-1H-pyrazol-3-yl)-4-methylquinolin-2(1H)-one]
GluN2C IC50 [1]: NE (NE indicates less than 50% inhibition at 30 μM.) | GluN2D IC50 [3]: NE (NE indicates less than 50% inhibition at 30 μM.) | GluN2A IC50 [5]: NE (NE indicates less than 50% inhibition at 30 μM.) | GluN2B IC50 [6]: NE (NE indicates less than 50% inhibition at 30 μM.)

SMILES: O=c1[nH]c2ccccc2c(-c2ccc(Cl)cc2)c1C1=NNC(c2ccncc2)C1 (centres unmarked) [997-78, 4-(4-chlorophenyl)-3-[5-(pyridin-4-yl)-4,5-dihydro-1H-pyrazol-3-yl]quinolin-2(1H)-one]
GluN2C IC50 [1]: weak potency | IC50 [2, 9]: 20 µM | GluN2D IC50 [3]: weak potency | 2B IC50 / 2D IC50 [3]: 3 | IC50 [4, 11]: 19 µM | GluN2A IC50 [5]: NE (NE indicates less than 50% inhibition at 30 μM.) | IC50 [8]: 54 µM | GluN2B IC50 [6]: weak potency

SMILES: Cc1ccc2[nH]c(=O)c(C3=NN(C(=O)C(F)(F)CC(=O)O)C(c4ccc(Cl)cc4)C3)c(-c3ccc(Cl)cc3)c2c1 (centres unmarked) [997-90, 4-(5-(4-chlorophenyl)-3-(4-(4-chlorophenyl)-6-methyl-2-oxo-1,2-dihydroquinolin-3-yl)-4,5-dihydro-1H-pyrazol-1-yl)-3,3-difluoro-4-oxobutanoic acid]
IC50 [2, 9]: 0.4 µM | IC50 [4, 11]: 0.2 µM | IC50 [7]: 3 µM | IC50 [8]: 3 µM

Now from value to compound:

I3 μM/Icontrol (mean ± SEM, %) GluN2C ([1]; listed as (+)-67): 74 ± 2.1% | IC50 [2, 9]: 8.5 µM | I3 μM/Icontrol (mean ± SEM, %) GluN2D ([3]; listed as (+)-67): 57 ± 3.5% | IC50 [4, 10]: 7.02 µM | IC50 [4, 11]: 3.6 µM | I3 μM/Icontrol (mean ± SEM, %) GluN2A ([5]; listed as (+)-67): 98 ± 2.1% | I3 μM/Icontrol (mean ± SEM, %) GluN2B ([6]; listed as (+)-67): 87 ± 2.8%
SMILES: O=C(CC(F)(F)CO)N1N=C(c2c(-c3ccc(Cl)cc3)c3ccccc3[nH]c2=O)CC1c1ccc(Cl)cc1 (single isomer, unassigned; (+)) [(+)-997-67]

I3 μM/Icontrol (mean ± SEM, %) GluN2C ([1]; listed as (−)-67): 42 ± 2.8% | IC50 ([2]; mean IC50 with bottom and top 95% confidence interval, read-out: Avg. GluN2C IC50 (95% CI)): 2.71 µM | IC50 [2, 9]: 1.4 µM | I3 μM/Icontrol (mean ± SEM, %) GluN2D ([3]; listed as (−)-67): 26 ± 3.2% | fold more potent than the (+)-enantiomer at GluN2D ([3]; (−)- versus (+)-enantiomer): 6 fold | IC50 [4, 10]: 0.97 µM | IC50 [4, 11]: 0.62 µM | I3 μM/Icontrol (mean ± SEM, %) GluN2A ([5]; listed as (−)-67): 100 ± 0.89% | I3 μM/Icontrol (mean ± SEM, %) GluN2B ([6]; listed as (−)-67): 95 ± 2.2%
SMILES: O=C(CC(F)(F)CO)N1N=C(c2c(-c3ccc(Cl)cc3)c3ccccc3[nH]c2=O)CC1c1ccc(Cl)cc1 (single isomer, unassigned; (-)) [(−)-997-67]

2A IC50 / 2D IC50 [3]: 56 | 2B IC50 / 2D IC50 [3]: 96 | IC50 [7]: 28 µM | IC50 [8]: 48 µM
SMILES: O=C(CC(F)(F)C(=O)O)N1N=C(c2c(-c3cccc(F)c3)c3ccccc3[nH]c2=O)CC1c1ccc(Cl)cc1 (centres unmarked) [997-69, 4-{5-(4-chlorophenyl)-3-[4-(3-fluorophenyl)-2-oxo-1,2-dihydroquinolin-3-yl]-4,5-dihydro-1H-pyrazol-1-yl}-2,2-difluoro-4-oxobutanoic acid]
